Test results published in patent US11135445B2, “Antimicrobial photodynamic inactivation procedure and system” (The General Hospital Corporation, priority 2014, dated 2021).

What was measured:
E. coli [1] = experiment: Toxicity of KI alone on bacteria; type: cell-based, Escherichia coli K12 (ATCC 33780); settings: KI 0-50 mM, 10 minutes, dark control and 5 J/cm^2 red light
Method: (§1) Since there existed a possibility that KI itself could exert an antimicrobial effect, to eliminate or at least account for the direct influence of the KI on the bacteria and to ensure that the final efficiency of the PDI process is attributed to the potentiation of the MB with the KI, additional qualitative performance evaluation tests were performed. Specifically, the bacteria cells (10^8 CFU; 500 uL) were incubated with different concentrations of KI (0-50 mM) for 10 minutes in order to verify the toxicity of KI. An aliquot of 100 μl from each sample, was used as dark control, another (100 μl) was irradiated with 5 J/cm^2 dose of light (660 nm light) and then placed in a new 96 well plate. The aliquots were serially diluted as before. The results presented in FIGS. 2A, 2B (for S. aureus and E. coli) verified that KI itself was not responsible for the increased potency of the PDI treatment observed in the experiments with the MCPPS.

[2] = tested on: mammalian dermal skin fibroblasts; experiment: Effect of KI in vitro on mammalian cells; type: cell-based; settings: 3 hours, KI 0.001-10 mM
[3] = Time-resolved singlet oxygen detection (1,270-nm phosphorescence); type: physicochemical
Method: The interaction of iodide with singlet oxygen photogenerated by RB was examined directly by measuring the lifetime of singlet oxygen at different concentrations of KI and indirectly by monitoring the effect of increasing concentrations of iodide on oxygen uptake induced by irradiation of the RB solution with green light. Time-resolved singlet oxygen detection was carried out as follows. Phosphate-buffered (pH 7.2) D2O solutions of RB (optical densitv,=0.25 to 0.3 at 550 nm) in a 1-cm-optical-path quartz fluorescence cuvette (catalog number QA-1000; Hellma, Mullheim. Germany) were excited by 550-nm pulses generated by an integrated nanosecond neodymium-doped yttrium aluminum garnet laser system equipped with a narrow-band-width optical parametric oscillator (model NT242-1k-SH/SFG; Ekspla. Vilnius, Lithuania), which delivered pulses at a repetition rate of 1 kHz with energy of up to several hundred microjoules in the visible region. […] The near-infrared luminescence (1,270 nm) was measured perpendicularly to the excitation beam in a photon-counting mode using a thermoelectric cooled near-infrared photomultiplier tube (NIR PMT) module (model H10330-45; Hamamatsu, Japan) equipped with a 1,100-nm-cutoff filter and an additional dichroic narrow-band filter narrow-band pass (NBP), selectable from the spectral range of 1,150 to 1,355 nm (NDC Infrared Engineering Ltd., Maldon, Essex, UK). […]

S. aureus = experiment: Toxicity of KI alone on bacteria; type: cell-based, Staphylococcus aureus (NCTC 8325); settings: KI 0-50 mM, 10 minutes, dark control and 5 J/cm^2 red light
Method: as §1

C. albicans = experiment: RB-mediated aPDI in vitro with/without KI; type: cell-based, Candida albicans CEC 749
Method: (§2) A source of green light was configured from a white lamp and a band-pass filter probe (wavelength, 540±15 nm Lumacare, Newport Beach, Calif., USA) to deliver light over a spot of 4 cm in diameter to simultaneously irradiate four wells of a 24-well plate in vitro or the whole abrasion in vive at an irradiance of 100 mW/cm^2. Light power was measured with a power meter (model DMM 199 with a 201 standard head; Coherent, Santa Clara, Calif., USA).
(§3) The following microbial strains were used: the Gram-positive bacterium methicillin-resistant Staphylococcus aureus (MRSA) USA 300, Gram-negative bacteria Escherichia coli K-12 (ATCC 33780) and Pseurdomonas aeruginosa ATCC 19660 (Xen 5P), and strain CEC 749 of the luciferase-expressing fungal yeast Candida albicans. A colony of bacteria or fungal yeast was suspended in 20 ml of brain heart infusion (BHI) broth for bacteria or yeast extract-peptone-dextrose (YPD) for C. albicans and grown overnight in a shaker incubator (New Brunswick Scientific, Edison, N.J.) at 120 rpm under aerobic conditions at 37° C. for bacteria and at 30° C. for C. albicans. For bacteria, an aliquot of 1 ml from an overnight bacterial suspension was refreshed in fresh BHI for 2 to 3 h at 37° C. to mid-log phase. […] The C. albicans cell number was assessed with a hemocytometer and was generally between 10^7 and 10^8 cells/ml. […]

MRSA = experiment: RB-mediated aPDI in vitro with/without KI; type: cell-based, methicillin-resistant Staphylococcus aureus (MRSA) USA 300
Method: as §2
(§4) The following microbial strains were used: the Gram-positive bacterium methicillin-resistant Staphylococcus aureus (MRSA) USA 300, Gram-negative bacteria Escherichia coli K-12 (ATCC 33780) and Pseurdomonas aeruginosa ATCC 19660 (Xen 5P), and strain CEC 749 of the luciferase-expressing fungal yeast Candida albicans. A colony of bacteria or fungal yeast was suspended in 20 ml of brain heart infusion (BHI) broth for bacteria or yeast extract-peptone-dextrose (YPD) for C. albicans and grown overnight in a shaker incubator (New Brunswick Scientific, Edison, N.J.) at 120 rpm under aerobic conditions at 37° C. for bacteria and at 30° C. for C. albicans. For bacteria, an aliquot of 1 ml from an overnight bacterial suspension was refreshed in fresh BHI for 2 to 3 h at 37° C. to mid-log phase. The cell concentration was estimated by measuring the optical density (OD) at 600 nm (OD of 0.6=10^8 cells/ml). The C. albicans cell number was assessed with a hemocytometer and was generally between 10^7 and 10^8 cells/ml.
(§5) Two types of in vitro aPDI experiments were carried out. The first experiments used cells with fixed RB and KI concentrations while varying the dose of irradiating light. The second type of experiments used cells with a fixed RB concentration and a fixed light dose while varying the KI concentration. Here, comparison was performed based on the order of addition of the components and the effect of centrifugation. […]

P. aeruginosa [4] = experiment: In vivo PDT of skin abrasions infected with bioluminescent P. aeruginosa; parameters: species or system BALB/c mice; settings: RB 500 μM, up to 20 J/cm^2
Method: The Pseudomonas aerugenosa strain used in this work was ATCC 19660 (Xen 5P). Bacteria were routinely grown in BHI with aeration in an orbital incubator at 100 rpm and 37° C. overnight to stationary phase. An aliquot of this suspension was then refreshed in fresh BHI to mid-log phase. Cell numbers were estimated by measuring the OD at 600 nm (OD of 0.6=10^8 CFU cells/ml). The bacterial suspension was centrifuged, washed, and resuspended in PBS, and the suspension was diluted 10-fold for the in vivo experiments.
An IVIS Lumina series III in vivo imaging system (PerkinElmer, Inc., Waltham, Mass., USA) was applied for bioluminescence imaging on a daily basis until the disappearance of the infection by bioluminescence imaging. Using the photon counting mode, an image can be obtained by detecting and integrating individual photons emitted by the bacterial cells. Prior to PDT and imaging, mice were anesthetized by intraperitoneal (i.p.) injection of a ketamine-xylazine cocktail. […] The signal from the bioluminescence image was quantified as the region of interest (ROI), with absolute calibrated data being given as the number of photons/(s cm^2 sr), using the IVIS software. […]
Mice were divided into four groups of 5 mice each. […] Then, the wounds were irradiated with green light at a fluence of up to 20 J/cm^2, and luminescence imaging was performed after irradiation.

P. aeruginosa [5] = experiment: RB-mediated aPDI in vitro with/without KI; type: cell-based, Pseudomonas aeruginosa ATCC 19660 (Xen 5P); settings: no KI
Method: as §2, §3

E. coli [6] = experiment: RB-mediated aPDI in vitro with/without KI; type: cell-based, Escherichia coli K-12 (ATCC 33780); settings: for killing: 10 μM RB
Method: as §2, §4, §5

SMILES	bacteria killing by KI alone (E. coli [1])	killing of mammalian cells by KI [2]	shortening of observable lifetime of singlet oxygen-dependent luminescence ([3]; 35 mM KI, RB in D2O)	bimolecular rate constant of quenching (kq) of singlet oxygen ([3]; RB-photogenerated singlet oxygen, KI 0 to 50 mM)	bacteria killing by KI alone (S. aureus)	killing (C. albicans; 10 μM RB plus light, no KI, either fluence (10, 20 J/cm^2))	killing, cells centrifuged after incubation with RB (C. albicans; 10 μM RB, 10 J/cm^2, KI up to 100 mM)	killing (MRSA; 100 nM RB plus light, no KI)	killing after a spin (centrifugation) (MRSA; 100 nM RB, 10 J/cm^2)	RB concentration that produced eradication (MRSA; RB as antimicrobial PS plus light)	reduction in the bioluminescence signal with 540-nm light (P. aeruginosa [4])	killing by RB aPDI in the absence of KI (P. aeruginosa [5])	killing (E. coli [6]; no KI, 20 J/cm^2 540 nm)	killing (E. coli [6]; with or without 100 mM KI, 10 J/cm^2 540 nm)	killing by RB aPDI in the absence of KI (E. coli [6]; no KI)
[I-].[K+] [KI, potassium iodide]	no bacteria killing was found	did not kill mammalian cells	more than 3 fold	1.1*10^6 l/(m*s)	no bacteria killing was found										
O=C1OC2(c3cc(I)c(O)c(I)c3Oc3c2cc(I)c(O)c3I)c2c(Cl)c(Cl)c(Cl)c(Cl)c21 [RB, Rose bengal]						no killing	some minor killing after centrifugation	1 to 2 logs	centrifugation abolished the killing	200 nM	only a slight reduction	almost no killing	2 logs	less than 1 logs	almost no killing
